Assay results taken from PubChem BioAssay (NCI).
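Following 48 hours of exposure in 96-well plates, responses at five concentrations were used to interpolate endpoints linearly. TGI: total growth inhibition.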

What was measured:
Experiment in all cases: inhibition of tumour cell growth, NCI panel, 48 h
[1] = tested on: LOX IMVI melanoma
[2] = tested on: A549 NSCLC
[3] = tested on: COLO 205 colon
[4] = tested on: T-47D breast
[5] = tested on: HCT-15 colon
[6] = tested on: RXF 393 renal
[7] = tested on: UACC-257 melanoma
[8] = tested on: OVCAR-5 ovarian
[9] = tested on: IGROV1 ovarian
[10] = tested on: BT-549 breast

SMILES	TGI [1] [µM]	TGI [2] [µM]	TGI [3] [µM]	TGI [4] [µM]	TGI [5] [µM]	TGI [6] [µM]	TGI [7] [µM]	TGI [8] [µM]	TGI [9] [µM]	TGI [10] [µM]
O=C(O)c1ccc(Nc2cnc3ccc(C(F)(F)F)cc3n2)cc1	24.5	30.8	32.5	17.9	36.8	35.3	93.9	> 100	28.5	60.1
O=C(Cc1nc2ccc([N+](=O)[O-])cc2[nH]c1=O)C(=O)Nc1cc(Cl)c(Cl)cc1Cl	> 100	> 100	> 100	> 100	> 100	> 100	> 100	> 100	> 100	> 100
Cc1ccc(S(=O)(=O)NC(=O)NS(=O)(=O)O)cc1	> 100	> 100	> 100	> 100	> 100	> 100	> 100	> 100	> 100	> 100
CCOP(=O)(OCC)C(F)(F)CC1CCCCC1	> 10	> 10	> 10	> 10	> 10	> 10	> 10	> 10	> 10	> 10
c1csc(-c2ccc(-c3ccc(-c4cccs4)s3)s2)c1	> 100	> 100	> 100	> 100	> 100	> 100	> 100	> 100	> 100	> 100
CCOC(=O)Cc1nc2c(=O)[nH]cnc2n1C1OC(COC(C)=O)C(OC(C)=O)C1OC(C)=O (stereo not given)	> 100	> 100	> 100	> 100	> 100	> 100	> 100	> 100	> 100	> 100
COC(=O)CNC(=O)/C=C/[C@H](O[Si](C)(C)C(C)(C)C)[C@H](/C=C/C(=O)NCC(=O)OC)O[Si](C)(C)C(C)(C)C	> 25	> 25	> 25	> 25	> 25	> 25	> 25	> 25	> 25	> 25
C/C(=N\O)c1ccc(Nc2c3ccccc3nc3occc23)cc1	> 50	> 11.9	0.65	25.7	4.07	0.614	> 44.6	> 50	8.59	> 12.4
O=C(NCCCCl)c1c(O)c2ccccc2[nH]c1=O	> 100	> 100	> 100	> 100	> 100	> 71.5	> 100	> 100	> 100	> 100
